Reference: patent publication US12365655B2, “Compounds” (CTXT PTY LTD, priority 2018, dated 2025)

How the values were obtained:
HBO-KAT7 = HBO-KAT7 (Homo sapiens, UniProt O95251); test: Acetyltransferase biochemical assay (AlphaScreen), KAT7
MOZ-KAT6A = MOZ-KAT6A (Homo sapiens, UniProt Q92794, A567V); test: Acetyltransferase biochemical assay (AlphaScreen), KAT6A
TIP60-KAT5 = TIP60-KAT5 (Homo sapiens, UniProt Q92993); test: Acetyltransferase biochemical assay (AlphaScreen), KAT5
TIP60-KAT5, sequence (Q92993 with tags, fused parts or gaps isoform Q92993-2): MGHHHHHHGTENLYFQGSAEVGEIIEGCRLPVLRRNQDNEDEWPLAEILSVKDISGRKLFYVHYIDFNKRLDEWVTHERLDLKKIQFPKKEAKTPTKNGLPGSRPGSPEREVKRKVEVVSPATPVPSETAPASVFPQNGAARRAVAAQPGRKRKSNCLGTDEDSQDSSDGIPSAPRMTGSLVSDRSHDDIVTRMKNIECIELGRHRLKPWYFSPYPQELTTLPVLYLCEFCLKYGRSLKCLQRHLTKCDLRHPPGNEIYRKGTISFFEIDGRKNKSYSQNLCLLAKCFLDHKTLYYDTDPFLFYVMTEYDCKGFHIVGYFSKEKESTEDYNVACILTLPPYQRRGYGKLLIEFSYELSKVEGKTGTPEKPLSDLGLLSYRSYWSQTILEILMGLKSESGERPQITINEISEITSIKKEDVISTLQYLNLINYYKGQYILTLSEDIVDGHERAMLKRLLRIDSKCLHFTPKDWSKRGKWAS

MOZ-KAT6A, sequence (Q92794 with tags, fused parts or gaps A567V): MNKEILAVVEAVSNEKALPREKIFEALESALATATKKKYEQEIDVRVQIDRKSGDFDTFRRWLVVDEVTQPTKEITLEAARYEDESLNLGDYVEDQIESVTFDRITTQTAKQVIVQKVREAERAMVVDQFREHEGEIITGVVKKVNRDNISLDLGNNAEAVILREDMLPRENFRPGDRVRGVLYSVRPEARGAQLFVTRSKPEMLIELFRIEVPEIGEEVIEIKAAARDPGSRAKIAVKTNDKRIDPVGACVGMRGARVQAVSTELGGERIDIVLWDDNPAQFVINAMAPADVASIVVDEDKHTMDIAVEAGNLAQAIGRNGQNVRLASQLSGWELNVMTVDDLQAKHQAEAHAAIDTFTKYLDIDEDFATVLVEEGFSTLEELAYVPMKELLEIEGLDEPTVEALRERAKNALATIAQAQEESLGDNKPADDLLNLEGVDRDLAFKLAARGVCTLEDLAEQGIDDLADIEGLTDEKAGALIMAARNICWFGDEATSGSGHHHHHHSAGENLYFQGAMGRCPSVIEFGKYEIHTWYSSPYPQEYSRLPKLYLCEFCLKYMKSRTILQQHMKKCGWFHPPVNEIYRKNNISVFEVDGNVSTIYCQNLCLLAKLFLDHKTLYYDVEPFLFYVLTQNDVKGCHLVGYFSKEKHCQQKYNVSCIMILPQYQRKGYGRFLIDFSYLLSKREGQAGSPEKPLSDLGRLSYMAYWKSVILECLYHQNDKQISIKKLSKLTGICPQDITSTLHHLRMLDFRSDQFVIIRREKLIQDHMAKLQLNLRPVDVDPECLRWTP
HBO-KAT7, sequence (O95251 with tags, fused parts or gaps): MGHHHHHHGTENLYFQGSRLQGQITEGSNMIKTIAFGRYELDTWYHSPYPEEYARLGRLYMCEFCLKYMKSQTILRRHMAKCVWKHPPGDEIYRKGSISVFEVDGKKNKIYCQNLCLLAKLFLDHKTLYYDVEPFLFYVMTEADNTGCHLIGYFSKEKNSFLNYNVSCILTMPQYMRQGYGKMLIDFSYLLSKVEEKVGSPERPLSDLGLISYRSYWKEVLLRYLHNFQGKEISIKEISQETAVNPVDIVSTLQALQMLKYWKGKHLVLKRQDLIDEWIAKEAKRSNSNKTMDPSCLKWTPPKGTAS

| IC50 (HBO-KAT7) [µM] | IC50 (MOZ-KAT6A) [µM] | IC50 (TIP60-KAT5) [µM] | Compound |
| --- | --- | --- | --- |
| 11 | 3.5 | > 125 | COc1cccc(OCCO)c1S(=O)(=O)Nc1noc2cccc(OC)c12 [Example 220, 2-(2-Hydroxyethoxy)-6-methoxy-N-(4-methoxybenzo[d]isoxazol-3-yl)benzenesulfonamide] |
| 0.937 | 0.688 | 2.58 | COc1ccc(S(=O)(=O)Nc2noc3cccc(OC)c23)c(OC)c1 [Example 76, 2,4-dimethoxy-N-(4-methoxybenzo [d]isoxazol-3-yl)benzene sulfonamide] |
| 44.9 | 62.6 | > 125 | COc1ccccc1S(=O)(=O)Nc1noc2cc(Cl)ccc12 [Example 158] |
| 27.6 | 6.45 | 51.5 | CCc1ccc(OC)c(S(=O)(=O)Nc2noc3cc(OCC4CC4)ccc23)c1 [Example 134] |
| 15.5 | 1.95 | 53.1 | CCc1ccc(OC)c(S(=O)(=O)Nc2noc3cc(C)ccc23)c1 [Example 193, 5-Ethyl-2-methoxy-N-(6-methylbenzo[d]isoxazol-3-yl)benzenesulfonamide] |
| 63.1 | 41.5 | > 125 | CCc1ccc(OC)c(S(=O)(=O)Nc2noc3ccc(CNC(=O)OC)cc23)c1 [Example 227, Methyl ((3-((5-ethyl-2-methoxyphenyl)sulfonamido)benzo[d]isoxazol-5-yl)methyl) carbamate] |
| 13 | 11 | 27.9 | O=S(=O)(Nc1noc2cccc(Cl)c12)c1cccc2ccccc12 [Example 124, N-(4-Chlorobenzo[d]isoxazol-3-yl)naphthalene-1-sulfonamide] |
| 18.9 | 4.78 | 90.7 | COc1cccc2onc(NS(=O)(=O)c3ccccc3)c12 [Example 90, N-(4-Methoxybenzo[d]isoxazol-3-yl)benzenesulfonamide] |
| 54.8 | 7.41 | 92.9 | COc1ccc(C(C)(C)C)cc1S(=O)(=O)Nc1noc2ccccc12 [Example 48, N-(benzo[d]isoxazol-3-yl)-5-(tert-butyl)-2-methoxy benzene sulfonamide] |
| 8.38 | 5.95 | 11.6 | O=S(=O)(Nc1noc2cccc(Cl)c12)c1ccc2c(c1)CCCC2 [Example 42, N-(4-chlorobenzo [d]isoxazol-3-yl)-5,6,7,8-tetrahydronaphthalene-2-sulfonamide] |
| 15.6 | 15.2 | 65.6 | CCc1ccc(S(=O)(=O)Nc2noc3ccccc23)c(OC)c1 [Example 182] |
| 6.28 | 30.2 | 94.9 | Cn1nc2cccc(S(=O)(=O)Nc3noc4cccc(Cl)c34)c2n1 [Example 6, N-(4-chlorobenzo [d]isoxazol-3-yl)-2-methyl-2H-benzo[d][1,2,3]triazole-4-sulfonamide] |
| 4.2 | 26.9 | 59.4 | O=S(=O)(Nc1noc2cccc(Cl)c12)c1cccc2cccnc12 [Example 123, N-(4-chlorobenzo[d]isoxazol-3-yl)quinoline-8-sulfonamide] |
| 6.85 | 8.67 | 32.2 | COc1ccc(S(=O)(=O)Nc2noc3cc(CO)ccc23)c(OC)c1 [Example 167] |
| 5.14 | 1.06 | 23.8 | CCc1cc2c(c(S(=O)(=O)Nc3noc4cccc(Cl)c34)c1)OCC2 [Example 181, N-(4-Chlorobenzo[d]isoxazol-3-yl)-5-ethyl-2,3-dihydrobenzofuran-7-sulfonamide] |
| 5.93 | 0.81 | 69.3 | COCc1ccc2c(NS(=O)(=O)c3c(OC)cccc3OC)noc2c1 [Example 103, 2,6-Dimethoxy-N-(6-(methoxymethyl)benzo [d]isoxazol-3-yl)benzenesulfonamide] |
| 8.04 | 4.97 | 50 | CCc1ccc(OC)c(S(=O)(=O)Nc2noc3ccc(Cl)cc23)c1 [Example 150] |
| 0.914 | 0.775 | 4.84 | COc1cc2c(cc1S(=O)(=O)Nc1noc3ccc(Br)cc13)CCCC2 [Example 113, N-(5-bromobenzo[d]isoxazol-3-yl)-3-methoxy-5,6,7,8-tetrahydronaphthalene-2-sulfonamide] |
| 0.626 | 0.302 | 6.36 | CCc1ccc(OC)c(S(=O)(=O)Nc2noc3ccc(CC)c(Cl)c23)c1 [Example 206] |
| 54.4 | 18.9 | 111 | CCc1ccc(OC)c(S(=O)(=O)Nc2noc3cccc(-c4cnn(C)c4)c23)c1 [Example 202, 5-Ethyl-2-methoxy-N-(4-(1-methyl-1H-pyrazol-4-yl)benzo[d]isoxazol-3-yl)benzenesulfonamide] |
| 3.01 | 1.46 | 16.5 | CCOc1cccc2onc(NS(=O)(=O)c3cc(CC)ccc3OC)c12 [Example 112] |

| IC50 (HBO-KAT7) [µM] | IC50 (MOZ-KAT6A) [µM] | IC50 (TIP60-KAT5) [µM] | Compound |
| --- | --- | --- | --- |
| 95.5 | 29 | 23.7 | COC(=O)c1ccc(Cl)cc1S(=O)(=O)Nc1noc2cccc(Cl)c12 [Example 115, Methyl 4-chloro-2-(N-(4-chlorobenzo[d]isoxazol-3-yl)sulfamoyl)benzoate] |
| 8.65 | 24.8 | 63.2 | COc1ccc(S(=O)(=O)Nc2noc3cc(C#N)c(C)cc23)c(OC)c1 [Example 169] |
| 0.473 | 1.16 | 47 | COc1cc(C#N)cc(-c2cc(OC)c3c(NS(=O)(=O)c4c(OC)cccc4OC)noc3c2)c1 [Example 251] |
| 15.5 | 94.6 | > 125 | COCc1cccc(S(=O)(=O)Nc2noc3cccc(Cl)c23)c1 [Example 2, N-(4-chlorobenzo [d]isoxazol-3-yl)-3-(methoxymethyl) benzenesulfonamide] |
| 14.6 | 11.8 | 27.7 | O=S(=O)(Nc1noc2cccc(Cl)c12)c1ccc(Oc2ccc(F)cc2)cc1 [Example 17, N-(4-chlorobenzo[d]isoxazol-3-yl)-4-(4-fluorophenoxy) benzenesulfonamide] |
| 17.9 | 9.95 | > 125 | CCc1ccc(OC)c(S(=O)(=O)Nc2noc3ccc(C#N)cc23)c1 [Example 233] |
| 11.5 | 89.5 | > 125 | O=S(=O)(Nc1noc2cccc(Cl)c12)c1ccccc1F [Example 30, N-(4-chlorobenzo [d]isoxazol-3-yl)-2-fluorobenzenesulfonamide] |
| 31.1 | 3.62 | > 125 | CCc1ccc(OC)c(S(=O)(=O)Nc2noc3ccc(Cn4cccn4)cc23)c1 [Example 225] |
| 15.5 | 23 | > 125 | COc1ccccc1S(=O)(=O)Nc1noc2cc(Br)ccc12 [Example 157] |
| 114 | 24.8 | > 125 | COc1cc(C)c(C(C)C)cc1S(=O)(=O)Nc1noc2cccc(Cl)c12 [Example 37, N-(4-chlorobenzo [d]isoxazol-3-yl)-5-isopropyl-2-methoxy-4-methylbenzenesulfonamide] |
| 63.8 | 63.9 | 120 | Cn1c(=O)oc2cc(S(=O)(=O)Nc3noc4cccc(Cl)c34)ccc21 [Example 13, N-(4-chlorobenzo [d]isoxazol-3-yl)-3-methyl-2-oxo-2,3-dihydrobenzo[d]oxazole-6-sulfonamide] |
| 10.2 | 1.83 | 122 | COc1cccc(OC)c1S(=O)(=O)Nc1noc2cc(COCC(F)(F)F)cc(OC)c12 [Example 240, 2,6-Dimethoxy-N-(4-methoxy-6-((2,2,2-trifluoroethoxy)methyl)benzo[d]isoxazol-3-yl)benzenesulfonamide] |
| 9.63 | 15.1 | 30.2 | O=S(=O)(Nc1noc2cccc(Cl)c12)c1cccc2nonc12 [Example 16, N-(4-chlorobenzo [d]isoxazol-3-yl)benzo[c][1,2,5]oxadiazole-4-sulfonamide] |
| > 125 | 93.8 | > 125 | COc1cccc2onc(NS(=O)(=O)c3cc(C)cc4cccnc34)c12 [Example 78, N-(4-methoxybenzo[d]isoxazol-3-yl)-6-methyl quinoline-8-sulfonamide] |
| 26.3 | 17.7 | 39 | O=S(=O)(Nc1noc2cccc(Cl)c12)c1cccc(S(F)(F)(F)(F)F)c1 [Example 36, N-(4-chlorobenzo [d]isoxazol-3-yl)-3-(pentafluoro-λ^6-sulfanyl)benzene sulfonamide] |
| 0.773 | 1.48 | 21.8 | CCc1ccc(OC)c(S(=O)(=O)Nc2noc3cccc(C4CCCCC4)c23)c1 [Example 201] |
| 6.56 | 8.58 | 14.2 | CCc1ccc(OC)c(S(=O)(=O)Nc2noc3c(Br)cccc23)c1 [Example 137] |
| 23.9 | 21.8 | 72.9 | O=S(=O)(Nc1noc2cccc(Cl)c12)c1ccc(OC(F)(F)F)cc1 [Example 23, N-(4-chlorobenzo [d]isoxazol-3-yl)-4-(trifluoromethoxy) benzenesulfonamide] |
| 18.4 | 10.2 | > 125 | COc1cccc(OC(C)C)c1S(=O)(=O)Nc1noc2cccc(OC)c12 [Example 217, 2-Isopropoxy-6-methoxy-N-(4-methoxybenzo[d]isoxazol-3-yl)benzenesulfonamide] |
| 3.98 | 0.782 | 14.3 | COc1cc2c(c(OC)c1S(=O)(=O)Nc1noc3cccc(OC)c13)CCC2 [Example 106, 4,6-Dimethoxy-N-(4-methoxybenzo[d]isoxazol-3-yl)-2,3-dihydro-1H-indene-5-sulfonamide] |
| 106 | 26.7 | > 125 | O=S(=O)(Nc1noc2ccccc12)c1ccc2c(c1)CCC2 [Example 64, N-(benzo[d]isoxazol-3-yl)-2,3-dihydro-1H-indene-5-sulfonamide] |
